Reference: BindingDB's records for doi:10.1016/s1074-5521(98)90168-5 (University of California San Francisco, 1998)

How the values were obtained:
[1] = target: T1, Thyroid hormone receptor beta (Homo sapiens, UniProt P10828); experiment: TR Receptor Ligand Binding Assay
T1 sequence (P10828 whole entry): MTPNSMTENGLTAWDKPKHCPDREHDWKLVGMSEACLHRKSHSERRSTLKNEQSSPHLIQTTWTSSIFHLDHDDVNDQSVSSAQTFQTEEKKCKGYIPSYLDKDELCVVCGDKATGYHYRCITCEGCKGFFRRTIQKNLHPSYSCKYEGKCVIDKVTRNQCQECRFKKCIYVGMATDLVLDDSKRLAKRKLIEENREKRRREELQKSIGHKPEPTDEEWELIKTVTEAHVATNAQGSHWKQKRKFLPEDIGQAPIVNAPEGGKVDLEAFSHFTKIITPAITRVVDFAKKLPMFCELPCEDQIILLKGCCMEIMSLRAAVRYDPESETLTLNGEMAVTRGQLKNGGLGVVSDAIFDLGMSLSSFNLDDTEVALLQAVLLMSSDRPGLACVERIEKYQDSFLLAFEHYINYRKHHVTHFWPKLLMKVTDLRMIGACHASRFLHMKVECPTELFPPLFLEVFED
Text: (§1) Human thyroid hormone receptor alpha and beta (hTR alpha1) and (hTR beta1) were produced using TNT coupled reticulocyte lysate system from Promega.

[2] = target: T2, Thyroid hormone receptor alpha (Homo sapiens, UniProt P10827); experiment: TR Receptor Ligand Binding Assay
T2 sequence (P10827 whole entry): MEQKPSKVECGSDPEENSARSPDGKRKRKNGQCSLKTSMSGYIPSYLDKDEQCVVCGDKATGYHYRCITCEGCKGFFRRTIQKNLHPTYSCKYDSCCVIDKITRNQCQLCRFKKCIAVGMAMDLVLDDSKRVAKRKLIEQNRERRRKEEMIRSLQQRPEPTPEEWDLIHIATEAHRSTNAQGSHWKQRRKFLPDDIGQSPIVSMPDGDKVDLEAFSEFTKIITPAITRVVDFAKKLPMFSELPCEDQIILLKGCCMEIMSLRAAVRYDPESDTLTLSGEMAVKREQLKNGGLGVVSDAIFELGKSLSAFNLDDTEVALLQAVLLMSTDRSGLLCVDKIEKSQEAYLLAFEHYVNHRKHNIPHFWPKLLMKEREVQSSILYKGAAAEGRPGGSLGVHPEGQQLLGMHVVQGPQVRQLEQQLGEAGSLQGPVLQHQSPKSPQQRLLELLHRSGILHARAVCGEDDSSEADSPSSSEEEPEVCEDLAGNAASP
Text: as §1

In the case of `Cc1cc(C[C@H](N)C(=O)O)cc(C)c1Oc1ccc(O)c(C(C)C)c1` [Dimethyl-isopropyl-T3 (DIMIT)], the Kd [1] is reported as 9.8 nM and the Kd [2] is reported as 9.7 nM.
